Patent publication US10597388B2, “Pyridazinone herbicides” (FMC CORPORATION, priority 2014, dated 2020)

Tests used:
Type in all cases: in vivo
[1] = system: waterhemp (common waterhemp, Amaranthus rudis); assay: Test C greenhouse herbicide test, pre- and postemergence
Procedure, shortened: (§1)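 Greenhouse pots; pre-em on seeded loam:sand blend, post-em on 2–18 cm plants (1–4 leaf) in sphagnum peat/vermiculite medium. Formulation: non-phytotoxic solvent + surfactant. Read-out: visual % control (0–100) vs controls at 13–15 d.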

[2] = system: ragweed (common ragweed, Ambrosia elatior); assay: as above
Procedure, shortened: as §1

[3] = system: corn (Zea mays); assay: as above
Procedure, shortened: as §1

[4] = system: soybean (Glycine max); assay: as above
Procedure, shortened: as §1

[5] = system: velvetleaf (Abutilon theophrasti); assay: as above
Procedure, shortened: as §1

[6] = system: foxtail, giant (giant foxtail, Setaria faberii); assay: as above
Procedure, shortened: as §1

[7] = system: lambsquarters (Chenopodium album); assay: as above
Procedure, shortened: as §1

[8] = system: crabgrass, large (large crabgrass, Digitaria sanguinalis); assay: as above
Procedure, shortened: as §1

[9] = system: ryegrass, Italian (Italian ryegrass, Lolium multiflorum); assay: as above
Procedure, shortened: as §1

[10] = system: johnsongrass (Sorghum halepense); assay: as above
Procedure, shortened: as §1

[11] = system: pigweed (Amaranthus retroflexus); assay: as above
Procedure, shortened: as §1

[12] = system: morningglory (Ipomoea coccinea); assay: as above
Procedure, shortened: as §1

[13] = system: blackgrass (Alopecurus myosuroides); assay: as above
Procedure, shortened: as §1

[14] = system: oilseed rape (Brassica napus); assay: as above
Procedure, shortened: as §1

[15] = system: oat, wild (wild oat, Avena fatua); assay: Test C greenhouse herbicide test, postemergence; details: Postemergence
Procedure, shortened: (§2)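 Visual injury scores (0–100, where 100 means complete control) were assigned 13 to 15 d after postemergence application, by comparison with untreated plants. Treated seedlings stood 2 to 18 cm tall, at the 1- to 4-leaf stage.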

[16] = system: kochia (Kochia scoparia); assay: Test C greenhouse herbicide test, postemergence; details: Postemergence
Procedure, shortened: as §2

[17] = Postemergence, 31 g ai/ha, scale 0 to 100 (0 no effect, 100 complete control)
[18] = Postemergence, 125 g ai/ha, scale 0 to 100, 0 is no effect, 100 is complete control
[19] = Postemergence, 250 g ai/ha, scale 0 to 100, 0 no effect, 100 complete control, 13 to 15 d
[20] = Preemergence, 31 g ai/ha, scale 0 to 100, 0 is no effect, 100 is complete control
[21] = Preemergence, 62 g ai/ha, scale 0 to 100, 0 is no effect, 100 is complete control
[22] = Preemergence, 125 g ai/ha, scale 0 to 100, 0 is no effect, 100 is complete control
[23] = Preemergence, 250 g ai/ha, scale 0 to 100 (0 no effect, 100 complete control)
[24] = postemergence, 62 g ai/ha, scale 0 to 100, 0 no effect, 100 complete control
[25] = 31 g ai/ha, scale 0 to 100 (0 no effect, 100 complete control)
[26] = 125 g ai/ha, scale 0 to 100, 0 is no effect, 100 is complete control
[27] = 250 g ai/ha, scale 0 to 100, 0 no effect, 100 complete control, 13 to 15 d

CCC(=O)Oc1c(C)nn(C)c(=O)c1-c1c(C)sc2ccc(Cl)cc12 [Compound 109]
Plant response rating, Waterhemp [1, 17]: 80
Plant response rating, Waterhemp [1, 18]: 90
Plant response rating, Waterhemp [1, 19]: 100
Plant response rating, Waterhemp [1, 20]: 80
Plant response rating, Waterhemp [1, 21]: 90
Plant response rating, Waterhemp [1, 22]: 100
Waterhemp plant response rating [1, 23]: 100
Plant response rating, Ragweed [2, 17]: 80
Plant response rating, Ragweed [2, 18]: 100
Plant response rating, Ragweed [2, 19]: 100
Plant response rating, Ragweed [2, 20]: 95
Plant response rating, Ragweed [2, 21]: 90
Plant response rating, Ragweed [2, 22]: 95
Ragweed plant response rating [2, 23]: 100
Plant response rating, Corn [3, 17]: 0
Plant response rating, Corn [3, 18]: 35
Plant response rating, Corn [3, 19]: 50
Plant response rating, Corn [3, 20]: 5
Plant response rating, Corn [3, 21]: 0
Plant response rating, Corn [3, 22]: 0
Corn plant response rating [3, 23]: 0
Corn plant response rating [3, 24]: 15
Plant response rating, Soybean [4, 17]: 0
Plant response rating, Soybean [4, 18]: 30
Plant response rating, Soybean [4, 19]: 25
Plant response rating, Soybean [4, 20]: 0
Plant response rating, Soybean [4, 21]: 0
Plant response rating, Soybean [4, 22]: 0
Soybean plant response rating [4, 23]: 0
Plant response rating, Velvetleaf [5, 17]: 75
Plant response rating, Velvetleaf [5, 18]: 98
Plant response rating, Velvetleaf [5, 19]: 100
Plant response rating, Velvetleaf [5, 20]: 60
Plant response rating, Velvetleaf [5, 21]: 75
Plant response rating, Velvetleaf [5, 22]: 80
Velvetleaf plant response rating [5, 23]: 90
Plant response rating, Foxtail, Giant [6, 17]: 45
Plant response rating, Foxtail, Giant [6, 18]: 80
Plant response rating, Foxtail, Giant [6, 19]: 85
Plant response rating, Foxtail, Giant [6, 20]: 65
Plant response rating, Foxtail, Giant [6, 21]: 85
Plant response rating, Foxtail, Giant [6, 22]: 85
Foxtail, Giant plant response rating [6, 23]: 90
Plant response rating, Lambsquarters [7, 17]: 95
Plant response rating, Lambsquarters [7, 18]: 100
Plant response rating, Lambsquarters [7, 19]: 100
Plant response rating, Lambsquarters [7, 20]: 80
Plant response rating, Lambsquarters [7, 21]: 90
Plant response rating, Lambsquarters [7, 22]: 90
Lambsquarters plant response rating [7, 23]: 100
Plant response rating, Crabgrass, Large [8, 17]: 35
Plant response rating, Crabgrass, Large [8, 18]: 60
Plant response rating, Crabgrass, Large [8, 19]: 60
Plant response rating, Crabgrass, Large [8, 20]: 40
Plant response rating, Crabgrass, Large [8, 21]: 65
Plant response rating, Crabgrass, Large [8, 22]: 70
Crabgrass, Large plant response rating [8, 23]: 80
Crabgrass, Large plant response rating [8, 24]: 40
Plant response rating, Ryegrass, Italian [9, 17]: 90
Plant response rating, Ryegrass, Italian [9, 18]: 90
Plant response rating, Ryegrass, Italian [9, 19]: 90
Plant response rating, Ryegrass, Italian [9, 20]: 70
Plant response rating, Ryegrass, Italian [9, 21]: 90
Plant response rating, Ryegrass, Italian [9, 22]: 90
Ryegrass, Italian plant response rating [9, 23]: 95
Plant response rating, Johnsongrass [10, 17]: 0
Plant response rating, Johnsongrass [10, 18]: 5
Plant response rating, Johnsongrass [10, 19]: 5
Plant response rating, Johnsongrass [10, 20]: 0
Plant response rating, Johnsongrass [10, 21]: 30
Plant response rating, Johnsongrass [10, 22]: 40
Johnsongrass plant response rating [10, 23]: 65
Plant response rating, Pigweed [11, 17]: 95
Plant response rating, Pigweed [11, 18]: 100
Plant response rating, Pigweed [11, 19]: 100
Plant response rating, Pigweed [11, 20]: 100
Plant response rating, Pigweed [11, 21]: 100
Plant response rating, Pigweed [11, 22]: 100
Pigweed plant response rating [11, 23]: 100
Plant response rating, Morningglory [12, 17]: 95
Plant response rating, Morningglory [12, 18]: 100
Plant response rating, Morningglory [12, 19]: 100
Plant response rating, Morningglory [12, 20]: 85
Plant response rating, Morningglory [12, 21]: 85
Plant response rating, Morningglory [12, 22]: 90
Morningglory plant response rating [12, 23]: 98
Plant response rating, Blackgrass [13, 17]: 20
Plant response rating, Blackgrass [13, 18]: 50
Plant response rating, Blackgrass [13, 19]: 80
Plant response rating, Blackgrass [13, 20]: 35
Plant response rating, Blackgrass [13, 21]: 30
Plant response rating, Blackgrass [13, 22]: 85
Blackgrass plant response rating [13, 23]: 90
Blackgrass plant response rating [13, 24]: 25
Plant response rating, Oilseed Rape [14, 17]: 70
Plant response rating, Oilseed Rape [14, 18]: 95
Plant response rating, Oilseed Rape [14, 19]: 95
Plant response rating, Oilseed Rape [14, 20]: 5
Plant response rating, Oilseed Rape [14, 21]: 85
Plant response rating, Oilseed Rape [14, 22]: 85
Oilseed Rape plant response rating [14, 23]: 90
Plant response rating, Oat, Wild [15, 25]: 80
Plant response rating, Oat, Wild [15, 26]: 90
Plant response rating, Oat, Wild [15, 27]: 90
Plant response rating, Kochia [16, 25]: 95
Plant response rating, Kochia [16, 26]: 100
Plant response rating, Kochia [16, 27]: 100
